Experimental data from ChEMBL document CHEMBL4804286, “3-amino-4-(4-(4 (dimethylcarbamoyl) phenyl)-1,4-diazepan-1-yl) thieno [2,3-b] pyridine-2-carboxamide for use in cancer therapy and formulations comprising the same” (2020).
“And” between values parts separate entries of the source, which are not always exact repeats. Equal entries are not always repeated. The source made the active and inactive calls. The calls are words filed in the database; no cut-off is given here.

Experiments:
[1] = target: Mitogen-activated protein kinase kinase kinase 6 (Homo sapiens) (UniProt O95382); assay: Inhibition of human ASK2 assessed as percent of control at 2000 nM by KINOMEscan assay relative to control; design: scale not given: the % may be the effect or the level left
[2] = target: Tyrosine-protein kinase Lck (Homo sapiens) (UniProt P06239); assay: Inhibition of human LCK assessed as percent of control at 2000 nM by KINOMEscan assay relative to control; design: scale not given: the % may be the effect or the level left
[3] = target: Serine/threonine-protein kinase PAK 1 (Homo sapiens) (UniProt Q13153); assay: Inhibition of human PAK1 assessed as percent of control at 2000 nM by KINOMEscan assay relative to control; design: scale not given: the % may be the effect or the level left
Sequence of Serine/threonine-protein kinase PAK 1 (Homo sapiens) (Q13153 whole entry): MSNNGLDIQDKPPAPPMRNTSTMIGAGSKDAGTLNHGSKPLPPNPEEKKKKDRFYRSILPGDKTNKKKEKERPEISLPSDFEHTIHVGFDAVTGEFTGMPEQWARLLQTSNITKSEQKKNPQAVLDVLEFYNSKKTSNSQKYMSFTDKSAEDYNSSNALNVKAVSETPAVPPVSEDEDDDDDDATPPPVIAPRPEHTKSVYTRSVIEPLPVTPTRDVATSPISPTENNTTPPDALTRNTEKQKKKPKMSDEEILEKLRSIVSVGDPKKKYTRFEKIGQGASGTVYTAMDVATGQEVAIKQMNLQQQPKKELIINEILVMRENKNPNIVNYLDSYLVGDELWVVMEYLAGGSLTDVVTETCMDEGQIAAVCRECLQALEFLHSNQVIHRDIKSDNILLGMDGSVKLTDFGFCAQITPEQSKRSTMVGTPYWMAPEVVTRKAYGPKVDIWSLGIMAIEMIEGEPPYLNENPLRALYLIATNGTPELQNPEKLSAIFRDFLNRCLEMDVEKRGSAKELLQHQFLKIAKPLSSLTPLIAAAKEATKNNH

[4] = target: Ribosomal protein S6 kinase beta-1 (Homo sapiens) (UniProt P23443); assay: Inhibition of human S6K1 assessed as percent of control at 2000 nM by KINOMEscan assay relative to control; design: scale not given: the % may be the effect or the level left
[5] = target: Dual specificity mitogen-activated protein kinase kinase 4 (Homo sapiens) (UniProt P45985); assay: Inhibition of human MEK4 assessed as percent of control at 2000 nM by KINOMEscan assay relative to control; design: scale not given: the % may be the effect or the level left
Sequence of Dual specificity mitogen-activated protein kinase kinase 4 (Homo sapiens) (P45985 whole entry): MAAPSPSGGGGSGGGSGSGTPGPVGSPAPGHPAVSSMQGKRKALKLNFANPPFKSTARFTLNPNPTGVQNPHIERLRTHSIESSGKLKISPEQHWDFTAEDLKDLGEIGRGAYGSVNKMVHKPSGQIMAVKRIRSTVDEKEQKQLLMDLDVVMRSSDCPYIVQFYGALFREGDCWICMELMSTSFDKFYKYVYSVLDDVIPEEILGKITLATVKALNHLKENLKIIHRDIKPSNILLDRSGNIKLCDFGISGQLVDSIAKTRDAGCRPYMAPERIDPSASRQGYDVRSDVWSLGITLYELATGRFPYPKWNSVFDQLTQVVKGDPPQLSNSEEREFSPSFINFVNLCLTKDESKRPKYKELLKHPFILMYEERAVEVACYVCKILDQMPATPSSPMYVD

[6] = target: Tyrosine-protein kinase Fer (Homo sapiens) (UniProt P16591); assay: Inhibition of human FER assessed as percent of control at 2000 nM by KINOMEscan assay relative to control; design: scale not given: the % may be the effect or the level left
[7] = target: High affinity nerve growth factor receptor (Homo sapiens) (UniProt P04629); assay: Inhibition of human TRKA assessed as percent of control at 2000 nM by KINOMEscan assay relative to control; design: scale not given: the % may be the effect or the level left
[8] = target: Receptor tyrosine-protein kinase erbB-4 (Homo sapiens) (UniProt Q15303); assay: Inhibition of human ERBB4 assessed as percent of control at 2000 nM by KINOMEscan assay relative to control; design: scale not given: the % may be the effect or the level left
[9] = target: TGF-beta receptor type-2 (Homo sapiens) (UniProt P37173); assay: Inhibition of human TGFBR2 assessed as percent of control at 2000 nM by KINOMEscan assay relative to control; design: scale not given: the % may be the effect or the level left
[10] = target: NT-3 growth factor receptor (Homo sapiens) (UniProt Q16288); assay: Inhibition of human TRKC assessed as percent of control at 2000 nM by KINOMEscan assay relative to control; design: scale not given: the % may be the effect or the level left
[11] = target: RAC-beta serine/threonine-protein kinase (Homo sapiens) (UniProt P31751); assay: Inhibition of human AKT2 assessed as percent of control at 2000 nM by KINOMEscan assay relative to control; design: scale not given: the % may be the effect or the level left
[12] = target: Serine/threonine-protein kinase PLK3 (Homo sapiens) (UniProt Q9H4B4); assay: Inhibition of human PLK3 assessed as percent of control at 2000 nM by KINOMEscan assay relative to control; design: scale not given: the % may be the effect or the level left
Sequence of Serine/threonine-protein kinase PLK3 (Homo sapiens) (Q9H4B4 whole entry, looked up): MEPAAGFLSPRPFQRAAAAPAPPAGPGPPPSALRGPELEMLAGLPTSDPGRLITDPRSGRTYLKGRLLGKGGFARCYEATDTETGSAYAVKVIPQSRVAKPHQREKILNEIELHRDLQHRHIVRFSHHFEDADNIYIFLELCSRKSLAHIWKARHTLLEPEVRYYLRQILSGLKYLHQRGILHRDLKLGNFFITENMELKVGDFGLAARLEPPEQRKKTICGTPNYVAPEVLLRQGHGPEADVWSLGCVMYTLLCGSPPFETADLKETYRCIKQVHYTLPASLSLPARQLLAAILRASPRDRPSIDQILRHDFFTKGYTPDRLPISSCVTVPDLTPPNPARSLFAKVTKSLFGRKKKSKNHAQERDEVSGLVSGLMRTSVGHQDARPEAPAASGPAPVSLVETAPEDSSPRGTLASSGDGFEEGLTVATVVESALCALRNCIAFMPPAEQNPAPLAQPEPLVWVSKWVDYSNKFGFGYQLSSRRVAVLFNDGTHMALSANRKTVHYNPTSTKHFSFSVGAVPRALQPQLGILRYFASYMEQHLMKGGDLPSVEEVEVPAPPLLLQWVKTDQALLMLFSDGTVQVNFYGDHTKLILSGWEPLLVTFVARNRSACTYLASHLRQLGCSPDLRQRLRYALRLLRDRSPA

[13] = target: BDNF/NT-3 growth factors receptor (Homo sapiens) (UniProt Q16620); assay: Inhibition of human TRKB assessed as percent of control at 2000 nM by KINOMEscan assay relative to control; design: scale not given: the % may be the effect or the level left
[14] = target: Serine/threonine-protein kinase DCLK2 (Homo sapiens) (UniProt Q8N568); assay: Inhibition of human DCAMKL2 assessed as percent of control at 2000 nM by KINOMEscan assay relative to control; design: scale not given: the % may be the effect or the level left
Sequence of Serine/threonine-protein kinase DCLK2 (Homo sapiens) (Q8N568 whole entry, the tested form may be a part): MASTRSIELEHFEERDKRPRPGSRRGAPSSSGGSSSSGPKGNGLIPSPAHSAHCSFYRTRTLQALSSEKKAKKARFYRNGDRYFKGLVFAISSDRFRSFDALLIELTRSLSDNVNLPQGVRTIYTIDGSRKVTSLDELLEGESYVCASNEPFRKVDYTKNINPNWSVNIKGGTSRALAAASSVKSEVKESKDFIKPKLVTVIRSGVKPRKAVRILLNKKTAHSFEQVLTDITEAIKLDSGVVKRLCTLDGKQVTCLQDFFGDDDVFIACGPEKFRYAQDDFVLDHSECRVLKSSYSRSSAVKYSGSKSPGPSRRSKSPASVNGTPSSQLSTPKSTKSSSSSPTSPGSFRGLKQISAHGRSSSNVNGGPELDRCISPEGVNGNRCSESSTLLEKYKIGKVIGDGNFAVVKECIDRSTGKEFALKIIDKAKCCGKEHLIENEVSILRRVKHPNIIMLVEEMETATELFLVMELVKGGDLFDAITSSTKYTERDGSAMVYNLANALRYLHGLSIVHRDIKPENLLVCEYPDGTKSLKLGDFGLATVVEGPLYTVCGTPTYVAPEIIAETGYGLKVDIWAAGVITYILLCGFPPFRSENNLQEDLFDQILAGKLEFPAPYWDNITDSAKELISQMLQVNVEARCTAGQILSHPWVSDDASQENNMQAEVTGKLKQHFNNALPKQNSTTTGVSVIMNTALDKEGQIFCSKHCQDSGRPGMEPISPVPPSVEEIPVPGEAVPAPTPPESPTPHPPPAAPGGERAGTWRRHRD

[15] = target: Ribosomal protein S6 kinase alpha-6 (Homo sapiens) (UniProt Q9UK32); assay: Inhibition of human C-terminal RSK4 kinase domain 2 assessed as percent of control at 2000 nM by KINOMEscan assay relative to control; design: scale not given: the % may be the effect or the level left
Sequence of Ribosomal protein S6 kinase alpha-6 (Homo sapiens) (Q9UK32 whole entry, the tested form may be a part): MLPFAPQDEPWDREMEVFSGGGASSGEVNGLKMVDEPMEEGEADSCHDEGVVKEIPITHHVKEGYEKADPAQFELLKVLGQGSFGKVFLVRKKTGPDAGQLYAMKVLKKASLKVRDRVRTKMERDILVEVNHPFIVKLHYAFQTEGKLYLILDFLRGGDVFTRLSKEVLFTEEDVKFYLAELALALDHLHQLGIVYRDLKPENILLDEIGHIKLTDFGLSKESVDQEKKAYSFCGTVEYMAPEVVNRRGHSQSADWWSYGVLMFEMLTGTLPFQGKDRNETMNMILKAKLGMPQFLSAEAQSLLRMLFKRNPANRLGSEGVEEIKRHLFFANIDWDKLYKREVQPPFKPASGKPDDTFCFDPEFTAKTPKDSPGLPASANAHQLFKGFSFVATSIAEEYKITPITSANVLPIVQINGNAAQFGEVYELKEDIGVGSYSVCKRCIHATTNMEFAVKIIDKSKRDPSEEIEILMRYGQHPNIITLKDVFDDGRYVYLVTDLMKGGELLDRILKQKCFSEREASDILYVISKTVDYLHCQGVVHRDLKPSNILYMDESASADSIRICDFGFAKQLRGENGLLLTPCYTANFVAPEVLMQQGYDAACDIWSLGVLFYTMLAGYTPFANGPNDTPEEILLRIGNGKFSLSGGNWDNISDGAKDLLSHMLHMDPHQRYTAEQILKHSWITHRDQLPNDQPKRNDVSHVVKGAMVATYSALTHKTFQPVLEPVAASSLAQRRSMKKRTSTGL

[16] = tested on: MDA-MB-468; assay: Antitumor activity against human MDA-MB-468 cells xenografted in female immunodeficient NSG mouse assessed as decrease in tumor weight at 250 ppm, po incorporated into medicated diet for 13 days followed by 5 mg/kg, po dose administered daily and after 37 days administered 8 mg/kg, po dose; assay type: functional, organism-based
[17] = target: Casein kinase I isoform gamma-1 (Homo sapiens) (UniProt Q9HCP0); assay: Inhibition of human CSNK1G1 assessed as percent of control at 2000 nM by KINOMEscan assay relative to control; design: scale not given: the % may be the effect or the level left
[18] = target: Aurora kinase B (Homo sapiens) (UniProt Q96GD4); assay: Inhibition of human AURKB assessed as percent of control at 2000 nM by KINOMEscan assay relative to control; design: scale not given: the % may be the effect or the level left
[19] = target: Mitogen-activated protein kinase kinase kinase 9 (Homo sapiens) (UniProt P80192); assay: Inhibition of human MLK1 assessed as percent of control at 2000 nM by KINOMEscan assay relative to control; design: scale not given: the % may be the effect or the level left
[20] = target: Protein kinase C theta type (Homo sapiens) (UniProt Q04759); assay: Inhibition of human PRKCQ assessed as percent of control at 2000 nM by KINOMEscan assay relative to control; design: scale not given: the % may be the effect or the level left
[21] = target: Interleukin-1 receptor-associated kinase 3 (Homo sapiens) (UniProt Q9Y616); assay: Inhibition of human IRAK3 assessed as percent of control at 2000 nM by KINOMEscan assay relative to control; design: scale not given: the % may be the effect or the level left
[22] = target: Serine/threonine-protein kinase Nek6 (Homo sapiens) (UniProt Q9HC98); assay: Inhibition of human NEK6 assessed as percent of control at 2000 nM by KINOMEscan assay relative to control; design: scale not given: the % may be the effect or the level left
Sequence of Serine/threonine-protein kinase Nek6 (Homo sapiens) (Q9HC98 whole entry, canonical isoform): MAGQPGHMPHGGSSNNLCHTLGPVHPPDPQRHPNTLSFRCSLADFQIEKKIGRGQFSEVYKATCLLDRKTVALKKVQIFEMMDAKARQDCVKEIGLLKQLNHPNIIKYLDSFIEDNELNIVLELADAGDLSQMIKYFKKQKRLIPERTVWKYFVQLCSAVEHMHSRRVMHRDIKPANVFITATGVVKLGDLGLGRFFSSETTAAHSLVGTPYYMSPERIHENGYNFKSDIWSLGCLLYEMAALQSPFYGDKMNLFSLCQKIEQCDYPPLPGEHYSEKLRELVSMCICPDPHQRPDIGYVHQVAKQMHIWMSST

[23] = target: Casein kinase I isoform epsilon (Homo sapiens) (UniProt P49674); assay: Inhibition of human CSNK1E assessed as percent of control at 2000 nM by KINOMEscan assay relative to control; design: scale not given: the % may be the effect or the level left; conditions: INHIBITOR
[24] = target: Interferon-induced, double-stranded RNA-activated protein kinase (Homo sapiens) (UniProt P19525); assay: Inhibition of human PRKR assessed as percent of control at 2000 nM by KINOMEscan assay relative to control; design: scale not given: the % may be the effect or the level left
[25] = target: Serine/threonine-protein kinase Nek3 (Homo sapiens) (UniProt P51956); assay: Inhibition of human NEK3 assessed as percent of control at 2000 nM by KINOMEscan assay relative to control; design: scale not given: the % may be the effect or the level left
Sequence of Serine/threonine-protein kinase Nek3 (Homo sapiens) (P51956 whole entry): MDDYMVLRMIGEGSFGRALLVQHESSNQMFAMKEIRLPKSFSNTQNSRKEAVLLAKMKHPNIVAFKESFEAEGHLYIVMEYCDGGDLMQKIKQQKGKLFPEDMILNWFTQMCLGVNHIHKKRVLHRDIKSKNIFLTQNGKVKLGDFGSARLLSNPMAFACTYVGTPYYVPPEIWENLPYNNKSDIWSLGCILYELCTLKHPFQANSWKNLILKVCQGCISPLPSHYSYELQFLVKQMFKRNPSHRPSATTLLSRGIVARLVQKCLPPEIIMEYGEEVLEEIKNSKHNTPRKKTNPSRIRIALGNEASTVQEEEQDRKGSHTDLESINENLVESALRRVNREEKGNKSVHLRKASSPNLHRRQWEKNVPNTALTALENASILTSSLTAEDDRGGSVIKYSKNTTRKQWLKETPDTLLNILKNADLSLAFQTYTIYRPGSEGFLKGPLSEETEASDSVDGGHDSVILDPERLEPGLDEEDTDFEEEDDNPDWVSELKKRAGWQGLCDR

[26] = tested on: Tyrosine-protein kinase ABL1 (Homo sapiens), P00519 [F317L]; assay: Inhibition of phosphorylated human ABL1 F317L mutant assessed as percent of control at 2000 nM by KINOMEscan assay relative to control; design: scale not given: the % may be the effect or the level left
Sequence of Tyrosine-protein kinase ABL1 (Homo sapiens), P00519 [F317L] (P00519 whole entry F317L): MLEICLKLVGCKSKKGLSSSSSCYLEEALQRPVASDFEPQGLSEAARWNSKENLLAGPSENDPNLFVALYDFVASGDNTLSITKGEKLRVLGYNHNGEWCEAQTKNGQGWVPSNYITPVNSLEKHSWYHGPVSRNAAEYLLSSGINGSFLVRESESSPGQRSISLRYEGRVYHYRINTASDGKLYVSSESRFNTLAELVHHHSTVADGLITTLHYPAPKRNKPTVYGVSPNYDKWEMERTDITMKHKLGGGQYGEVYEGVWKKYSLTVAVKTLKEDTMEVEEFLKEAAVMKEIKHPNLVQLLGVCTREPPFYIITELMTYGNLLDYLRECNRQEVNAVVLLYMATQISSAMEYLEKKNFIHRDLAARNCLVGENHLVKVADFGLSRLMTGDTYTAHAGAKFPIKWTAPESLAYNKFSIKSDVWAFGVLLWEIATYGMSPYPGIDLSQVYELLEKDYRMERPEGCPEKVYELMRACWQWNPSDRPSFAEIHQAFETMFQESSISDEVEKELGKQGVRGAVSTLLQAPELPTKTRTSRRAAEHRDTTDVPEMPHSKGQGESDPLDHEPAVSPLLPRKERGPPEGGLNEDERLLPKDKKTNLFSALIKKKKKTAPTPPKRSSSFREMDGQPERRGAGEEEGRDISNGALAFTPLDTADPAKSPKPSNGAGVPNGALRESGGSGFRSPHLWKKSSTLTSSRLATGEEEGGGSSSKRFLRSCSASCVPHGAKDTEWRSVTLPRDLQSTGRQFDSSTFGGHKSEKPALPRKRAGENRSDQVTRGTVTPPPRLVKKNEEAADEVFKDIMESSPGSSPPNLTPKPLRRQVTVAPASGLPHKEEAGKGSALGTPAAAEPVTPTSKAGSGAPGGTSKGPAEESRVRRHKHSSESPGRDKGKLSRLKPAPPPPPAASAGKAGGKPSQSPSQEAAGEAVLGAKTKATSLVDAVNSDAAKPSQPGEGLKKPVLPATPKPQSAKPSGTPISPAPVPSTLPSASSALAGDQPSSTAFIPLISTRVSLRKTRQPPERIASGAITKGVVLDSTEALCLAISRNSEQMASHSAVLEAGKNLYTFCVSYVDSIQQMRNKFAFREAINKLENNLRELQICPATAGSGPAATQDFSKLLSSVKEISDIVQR

[27] = target: Tyrosine-protein kinase Srms (Homo sapiens) (UniProt Q9H3Y6); assay: Inhibition of human SRMS assessed as percent of control at 2000 nM by KINOMEscan assay relative to control; design: scale not given: the % may be the effect or the level left
[28] = tested on: Epidermal growth factor receptor (Homo sapiens), P00533 [L861Q]; assay: Inhibition of human EGFR L861Q mutant assessed as percent of control at 2000 nM by KINOMEscan assay relative to control; design: scale not given: the % may be the effect or the level left
[29] = target: Focal adhesion kinase 1 (Homo sapiens) (UniProt Q05397); assay: Inhibition of human FAK assessed as percent of control at 2000 nM by KINOMEscan assay relative to control; design: scale not given: the % may be the effect or the level left
[30] = tested on: Epidermal growth factor receptor (Homo sapiens), P00533 [UNDEFINED MUTATION]; assay: Inhibition of human EGFR […] mutant assessed as percent of control at 2000 nM by KINOMEscan assay relative to control; design: scale not given: the % may be the effect or the level left
[31] = target: Cyclin-dependent kinase 8 (Homo sapiens) (UniProt P49336); conditions: INHIBITOR, dose 2000.0 nM
Description: Inhibition of human CDK8 at 2000 nM by KINOMEscan assay

## CN(C)C(=O)c1ccc(N2CCCN(c3ccnc4sc(C(N)=O)c(N)c34)CC2)cc1
[1]
  Activity: 90% and 88%
[2]
  Activity: 91% and 100%
[3]
  Activity: 96% and 92%
[4]
  Activity: 95% and 89%
[5]
  Activity: 69% and 74%
[6]
  Activity: 99% and 100%
[7]
  Activity: 93% and 78%
[8]
  Activity: 85% and 100%
[9]
  Activity: 100%
[10]
  Activity: 91% and 85%
[11]
  Activity: 86% and 99%
[12]
  Activity: 86% and 90%
[13]
  Activity: 88% and 78%
[14]
  Activity: 100%
[15]
  Activity: 94% and 79%
[16]
  Activity: Active
[17]
  Activity: 90% and 80%
[18]
  Activity: 91% and 90%
[19]
  Activity: 95% and 92%
[20]
  Activity: 90% and 87%
[21]
  Activity: 93% and 89%
[22]
  Activity: 92% and 100%
[23]
  Activity: 25% and 12%
[24]
  Activity: 100%
[25]
  Activity: 100% and 76%
[26]
  Activity: 97% and 82%
[27]
  Activity: 81% and 93%
[28]
  Activity: 78% and 100%
[29]
  Activity: 100% and 96%
[30]
  Activity: 86% and 100%
[31]
  inhibition: > 65%
